Test results reported in BindingDB's records for doi:10.1021/jm00107a034 (Sterling Research Group, 1991).

Key:
[1] = Concentration required to inhibit 50% activity of prostaglandin synthetase was determined in mouse vas deferens
[2] = Concentration required to inhibit 50% activity of prostaglandin synthetase was determined in vitro in mouse brain microsomes

Compound	IC50 [1] [µM]	IC50 [2] [µM]
Cc1c(C(=O)c2cccc3ccccc23)c2ccccc2n1CCN1CCOC(O)C1 (centres undefined)	0.57	
COc1ccc(C(=O)c2cn(CCN3CCOCC3)c3ccccc23)cc1	5	> 30
COc1ccc(C(=O)c2c(C)n(CCN3CCOCC3)c3ccccc23)cc1 [(s-cis) -(4-Methoxy-phenyl)-[2-methyl-1-(2-morpholin-4-yl-ethyl)-1H-indol-3-yl]-methanone]	> 30	
